Assays:
[1] = system: lipid content in primary human hepatocytes (M/M homozygous); assay: Lipid (Oil Red O) staining of primary human hepatocytes; type: cell-based; details: 3.3 μM
Description: DMSO and chloroquine were used as controls. After treatment, the cells were fixed and stained with ORO using the BioVision Lipid (Oil Red O) Staining Kit (cat #K580-24) according to the manufacturer's instructions. Parallel treatment samples were processed for qRT-PCR as previously described. Representative light microscopy images of each treatment are shown in FIG. 14A and a quantification of the PNPLA3 mRNA levels are shown in FIG. 14B.

[2] = Serum insulin quantification in mice (ELISA); type: in vivo, mouse
Description: (§1) Mouse 7-8 week old C57BL/6J mice were divided into 9 groups. Each group had 8 male mice. All mice were given a high sucrose diet for 10 days (Diet no. 901683; 74% kCal from sucrose. […] Food was removed at the start of the light cycle, about 7 am, except on the last day, when food was left in the cage until termination. On day 7-10, mice were administered daily (QD) via oral gavage, candidate compounds at a volume of 10 mL/kg with the compound in vehicle solution (0.5% methylcellulose/0.2% tween20). Vehicle alone was administered to control group 1. OSI-027 was administered at 25 mg/kg, 10 mg/kg, 5 mg/kg, and 2 mg/kg to groups 2-5. […] The treatment was administered in the evening on Days 7 to 10 and in the morning on Day 11, starting at 5 am. On Day 11, mice were terminated 4 hours post last dose at 9 am, for a total of 5 doses of each candidate compound. Mice were weighed 2×/week until Day 11. Liver and blood samples were collected after mice were terminated. Liver samples were process for mRNA extraction as previously described. Blood samples were processed for serum collection. […] Serum insulin levels in mouse samples were quantified using an ELISA kit purchased from Crystal Chem (Catalog #90080), per the manufacturer's instructions.

[3] = Serum glucose quantification in mice; type: in vivo, mouse
Description: as §1, with “glucose” for “insulin”, “levels were measured” for “levels”, “a single-reagent coupled-enzyme assay, against a glucose standard curve, colorimetrically. The glucose assay reagent was prepared as follows: one capsule of glucose oxidase/peroxidase (Sigma, cat #G3660-1CAP) was dissolved in 19.6 ml of deionized water. Separately, one vial of O-Dianisidine reagent (Sigma, cat #D2679) was dissolved in 0.5 ml of deionized water, 0.4 ml of the O-Dianisidine reagent was added into the enzyme mix to make 20 ml of 2× Glucose assay reagent. The glucose assay reagent was made fresh prior to running the assay. […] A no glucose control was included as a reagent blank. […] The reaction was incubated at 37° C. for 30 min. 100 μl of 2N sulfuric acid was then added to quench the reaction. The color developed was read spectrophotometrically at 540 nm. The amount of glucose in the” for “mouse”, “determined based on the parameters of the linear fit obtained” for “quantified using an ELISA kit purchased”, “from” for “from Crystal Chem (Catalog #90080), per”, “glucose standard curve.” for “manufacturer's instructions.”

[4] = system: triglyceride content in HepG2 cells; assay: AdipoRed staining and triglyceride quantification of lipid droplet fraction in HepG2 cells; type: cell-based; details: 72 hours; for TG (nmol/ug protein) (±Standard Deviation): lipid droplet fraction
Description: HepG2 cells were treated with OSI-027 as described in Example 1. DMSO was used as a control. After treatment, the cells were stained with the AdipoRedTM Assay Reagent (cat #PT-7009) according to the manufacturer's instructions. Parallel treatment samples were processed for triglyceride quantification. For triglyceride quantification, HepG2 cells were treated with OSI-027 for 72 hours. Cells were collected and the lipid droplet (LD) fraction of the cell lysate enriched using the lipid droplet isolation kit (Cell Biolabs Inc., #[…]) per the manufacturer's instructions. The triglyceride content of the LD-enriched fraction measured using a Triglyceride Quantification Kit (Biovision Inc., #K622) per manufacturer's protocol, with a fluorimetric read-out.

PCSK9 mRNA = assay: qRT-PCR of PCSK9 mRNA in primary hepatocytes; type: cell-based, human; details: donor 4178, 3 μM, relative to GUSB
COL1A1 mRNA = assay: qRT-PCR of COL1A1 mRNA in human primary hepatic stellate cells; type: cell-based; details: 3 μM, relative to GAPDH
[5] = system: mTOR signaling of phospho-4E-BP1; details: cited from earlier work

Row | Compound | lipid content (in words) [1] | serum insulin (in words) ([2]; 1 mg/kg) | serum insulin (in words) ([2]; 10 mg/kg, 5 mg/kg, and 2 mg/kg) | serum glucose (in words) ([3]; 1 mg/kg) | serum glucose (in words) ([3]; 10 mg/kg, 5 mg/kg, and 2 mg/kg) | TG (nmol/ug protein) (±Standard Deviation) ([4]; 0.33 μM) | TG (nmol/ug protein) (±Standard Deviation) ([4]; 1 μM) | triglyceride content (in words) [4] | Primary Hepatocytes 4178 PCSK9 (fold change in mRNA expression) (PCSK9 mRNA) | serum insulin (in words) ([2]; 25 mg/kg) | serum glucose (in words) ([3]; 25 mg/kg) | Primary Stellate cells COL1A1 (fold change in mRNA expression) (COL1A1 mRNA) | IC50 [5] [nM]
1 | COc1ccc(-c2cc3c(C)nc(N)nc3n([C@H]3CC[C@H](OCCO)CC3)c2=O)cn1 [PF-04691502] | reduced lipid content in primary human hepatocytes | moderate increases in serum insulin | significant serum glucose and serum insulin increases | moderate increased insulin and glucose levels | significant serum glucose and serum insulin increases |  |  |  |  |  |  |  | 
2 | COc1cccc2cc(-c3nc([C@H]4CC[C@H](C(=O)O)CC4)n4ncnc(N)c34)[nH]c12 [OSI-027] | reduced lipid content in primary human hepatocytes |  | no significant changes in serum glucose or serum insulin levels |  | no significant changes in serum glucose or serum insulin levels | 0.24 ± 0.02828 | 0.235 ± 0.03535 | reduced triglyceride content in HepG2 cells | 0.69 | significant increased | significant increased | 0.51 | 1000

Source: US20220107328A1, “METHODS OF TREATING LIVER DISEASES” (Camp4 Therapeutics Corporation, priority 2018, published 2022)
